Measurements published in paper PMC10408569, “Recruitment of hexahydroquinoline as anticancer scaffold targeting inhibition of wild and mutants EGFR (EGFR^WT, EGFR^T790M, and EGFR^L858R)” (Journal of Enzyme Inhibition and Medicinal Chemistry, 2023).

Key:
OVCAR-3 = test: NCI-60 anticancer screening (SRB); type: cell-based; conditions: Homo sapiens; OVCAR-3, ovarian cancer; one dose 10 μM; read-out: Growth Inhibition Percentage (GI %)
OVCAR-8 = test: NCI-60 anticancer screening (SRB); type: cell-based; conditions: Homo sapiens; OVCAR-8, ovarian cancer; one dose 10 μM; read-out: Growth Inhibition Percentage (GI %)
NCI-H226 = test: NCI-60 anticancer screening (SRB); type: cell-based; conditions: Homo sapiens; NCI-H226, NSC lung cancer; one dose 10 μM; read-out: Growth Inhibition Percentage (GI %)
HCT-15 = test: NCI-60 anticancer screening (SRB); type: cell-based; conditions: Homo sapiens; HCT-15, colon cancer; one dose 10 μM; read-out: Growth Inhibition Percentage (GI %)
NCI-H322M = test: NCI-60 anticancer screening (SRB); type: cell-based; conditions: Homo sapiens, NSC lung cancer, one dose 10 μM, read-out: Growth Inhibition Percentage (GI %)
MDA-MB-435 = test: NCI-60 anticancer screening (SRB); type: cell-based; conditions: Homo sapiens; MDA-MB-435, melanoma; one dose 10 μM; read-out: Growth Inhibition Percentage (GI %)
OVCAR-5 = test: NCI-60 anticancer screening (SRB); type: cell-based; conditions: Homo sapiens; OVCAR-5, ovarian cancer; one dose 10 μM; read-out: Growth Inhibition Percentage (GI %)
SK-OV-3 = test: NCI-60 anticancer screening (SRB); type: cell-based; conditions: Homo sapiens; SK-OV-3, ovarian cancer; one dose 10 μM; read-out: Growth Inhibition Percentage (GI %)
SNB-75 = test: NCI-60 anticancer screening (SRB); type: cell-based; conditions: Homo sapiens; SNB-75, CNS cancer; one dose 10 μM; read-out: Growth Inhibition Percentage (GI %)
RXF 393 = test: NCI-60 anticancer screening (SRB); type: cell-based; conditions: Homo sapiens; RXF 393, renal cancer; one dose 10 μM; read-out: Growth Inhibition Percentage (GI %)
UACC-257 = test: NCI-60 anticancer screening (SRB); type: cell-based; conditions: Homo sapiens; UACC-257, melanoma; one dose 10 μM; read-out: Growth Inhibition Percentage (GI %)
SW-620 = test: NCI-60 anticancer screening (SRB); type: cell-based; conditions: Homo sapiens; SW-620, colon cancer; one dose 10 μM; read-out: Growth Inhibition Percentage (GI %)
SK-MEL-5 = test: NCI-60 anticancer screening (SRB); type: cell-based; conditions: Homo sapiens; SK-MEL-5, melanoma; one dose 10 μM; read-out: Growth Inhibition Percentage (GI %)
HL-60(TB) = test: NCI-60 anticancer screening (SRB); type: cell-based; conditions: Homo sapiens, leukemia, one dose 10 μM, read-out: Growth Inhibition Percentage (GI %)
SK-MEL-2 = test: NCI-60 anticancer screening (SRB); type: cell-based; conditions: Homo sapiens; SK-MEL-2, melanoma; one dose 10 μM; read-out: Growth Inhibition Percentage (GI %)
T-47D = test: NCI-60 anticancer screening (SRB); type: cell-based; conditions: Homo sapiens, T47D, breast cancer, one dose 10 μM, read-out: Growth Inhibition Percentage (GI %)
A549/ATCC = test: NCI-60 anticancer screening (SRB); type: cell-based; conditions: Homo sapiens; A549/ATCC, NSC lung cancer; one dose 10 μM; read-out: Growth Inhibition Percentage (GI %)
MOLT-4 = test: NCI-60 anticancer screening (SRB); type: cell-based; conditions: Homo sapiens; MOLT-4, leukemia; one dose 10 μM; read-out: Growth Inhibition Percentage (GI %)
OVCAR-4 = test: NCI-60 anticancer screening (SRB); type: cell-based; conditions: Homo sapiens; OVCAR-4, ovarian cancer; one dose 10 μM; read-out: Growth Inhibition Percentage (GI %)
NCI 60 cancer cell lines = test: NCI-60 anticancer screening (SRB), whole panel; type: cell-based, human; conditions: mean across the NCI-60 panel; one dose 10 μM
SNB-19 = test: NCI-60 anticancer screening (SRB); type: cell-based; conditions: Homo sapiens; SNB-19, CNS cancer; one dose 10 μM; read-out: Growth Inhibition Percentage (GI %)
HOP-62 = test: NCI-60 anticancer screening (SRB); type: cell-based; conditions: Homo sapiens; HOP-62, NSC lung cancer; one dose 10 μM; read-out: Growth Inhibition Percentage (GI %)
NCI-H522 = test: NCI-60 anticancer screening (SRB); type: cell-based; conditions: Homo sapiens; NCI-H522, NSC lung cancer; one dose 10 μM; read-out: Growth Inhibition Percentage (GI %)
ACHN = test: NCI-60 anticancer screening (SRB); type: cell-based; conditions: Homo sapiens, renal cancer, one dose 10 μM, read-out: Growth Inhibition Percentage (GI %)
LOX IMVI = test: NCI-60 anticancer screening (SRB); type: cell-based; conditions: Homo sapiens, melanoma, one dose 10 μM, read-out: Growth Inhibition Percentage (GI %)
K-562 = test: NCI-60 anticancer screening (SRB); type: cell-based; conditions: Homo sapiens, K562; K-562, leukemia; one dose 10 μM; read-out: Growth Inhibition Percentage (GI %)
MDA-MB-468 = test: NCI-60 anticancer screening (SRB); type: cell-based; conditions: Homo sapiens; MDA-MB-468, breast cancer; one dose 10 μM; read-out: Growth Inhibition Percentage (GI %)
SF-268 = test: NCI-60 anticancer screening (SRB); type: cell-based; conditions: Homo sapiens; SF-268, CNS cancer; one dose 10 μM; read-out: Growth Inhibition Percentage (GI %)
SR = test: NCI-60 anticancer screening (SRB); type: cell-based; conditions: Homo sapiens, leukemia, one dose 10 μM, read-out: Growth Inhibition Percentage (GI %)
HCC-2998 = test: NCI-60 anticancer screening (SRB); type: cell-based; conditions: Homo sapiens; HCC-2998, colon cancer; one dose 10 μM; read-out: Growth Inhibition Percentage (GI %)
RPMI-8226 = test: NCI-60 anticancer screening (SRB); type: cell-based; conditions: Homo sapiens; RPMI-8226, leukemia; one dose 10 μM; read-out: Growth Inhibition Percentage (GI %)
KM 12 = test: NCI-60 anticancer screening (SRB); type: cell-based; conditions: Homo sapiens, KM12; KM 12, colon cancer; one dose 10 μM; read-out: Growth Inhibition Percentage (GI %)

| SMILES | inhibition at 10 µM (OVCAR-3) | inhibition at 10 µM (OVCAR-8) | melting point | inhibition at 10 µM (NCI-H226) | inhibition at 10 µM (HCT-15) | inhibition at 10 µM (NCI-H322M) | inhibition at 10 µM (MDA-MB-435) | inhibition at 10 µM (OVCAR-5) | inhibition at 10 µM (SK-OV-3) | inhibition at 10 µM (SNB-75) | inhibition at 10 µM (RXF 393) | inhibition at 10 µM (UACC-257) | inhibition at 10 µM (SW-620) | inhibition at 10 µM (SK-MEL-5) | inhibition at 10 µM (HL-60(TB)) | inhibition at 10 µM (SK-MEL-2) | inhibition at 10 µM (T-47D) | inhibition at 10 µM (A549/ATCC) | inhibition at 10 µM (MOLT-4) | inhibition at 10 µM (OVCAR-4) | also measured |
| --- | --- | --- | --- | --- | --- | --- | --- | --- | --- | --- | --- | --- | --- | --- | --- | --- | --- | --- | --- | --- | --- |
| CCOC(=O)C1=C(N)N(c2ccccc2)C2=C(C(=O)CC(C)(C)C2)C1c1ccccc1Br (racemic) [6d, (±)-Ethyl 2-amino-4–(2-bromophenyl)-7,7-dimethyl-5-oxo-1-phenyl-1,4,5,6,7,8-hexahydroquinoline-3-carboxylate] | < 10% | < 10% | 220 to 222 °C | 11% | 17% | < 10% | < 10% | < 10% | < 10% | 33% | < 10% | < 10% | < 10% | < 10% | 34% | 23% | 30% | 13% | 25% | 12% | GI % mean (NCI 60 cancer cell lines): 12%; inhibition at 10 µM (SNB-19): < 10%; inhibition at 10 µM (HOP-62): < 10%; inhibition at 10 µM (NCI-H522): 23%; inhibition at 10 µM (ACHN): 11%; inhibition at 10 µM (LOX IMVI): 12%; inhibition at 10 µM (K-562): 20%; inhibition at 10 µM (MDA-MB-468): 30%; inhibition at 10 µM (SF-268): < 10%; inhibition at 10 µM (SR): 14%; inhibition at 10 µM (HCC-2998): < 10%; inhibition at 10 µM (RPMI-8226): 35%; inhibition at 10 µM (KM 12): < 10% |
| CCOC(=O)C1=C(N)N(c2ccccc2)C2=C(C(=O)CC(C)(C)C2)C1c1cccnc1 (racemic) [12d] | < 10% | < 10% | 215 to 217 °C | < 10% | < 10% | < 10% | < 10% | < 10% | < 10% | 17% | < 10% | < 10% | < 10% | < 10% | < 10% | < 10% | < 10% | < 10% | < 10% | < 10% | GI % mean (NCI 60 cancer cell lines): - ((-) = GI % mean less than 10); inhibition at 10 µM (SNB-19): < 10%; inhibition at 10 µM (HOP-62): < 10%; inhibition at 10 µM (NCI-H522): 15%; inhibition at 10 µM (ACHN): < 10%; inhibition at 10 µM (LOX IMVI): < 10%; inhibition at 10 µM (K-562): < 10%; inhibition at 10 µM (MDA-MB-468): < 10%; inhibition at 10 µM (SF-268): < 10%; inhibition at 10 µM (SR): < 10%; inhibition at 10 µM (HCC-2998): < 10%; inhibition at 10 µM (RPMI-8226): < 10%; inhibition at 10 µM (KM 12): < 10% |
| CCOC(=O)C1=C(N)N(c2ccc(C)cc2)C2=C(C(=O)CC(C)(C)C2)C1c1ccccc1Br (racemic) [6e, (±)-Ethyl 2-amino-4–(2-bromophenyl)-7,7-dimethyl-1–(4-methylphenyl)-5-oxo-1,4,5,6,7,8-hexahydroquinoline-3-carboxylate] | 15% | < 10% | 236 to 238 °C | 15% | 42% | < 10% | 17% | < 10% | < 10% | 13% | 14% | 16% | 54% | 23% | 111% | 15% | 30% | 19% | 71% | 17% | GI % mean (NCI 60 cancer cell lines): 22%; inhibition at 10 µM (SNB-19): 13%; inhibition at 10 µM (HOP-62): < 10%; inhibition at 10 µM (NCI-H522): 32%; inhibition at 10 µM (ACHN): 14%; inhibition at 10 µM (LOX IMVI): 11%; inhibition at 10 µM (K-562): 50%; inhibition at 10 µM (MDA-MB-468): 23%; inhibition at 10 µM (SF-268): < 10%; inhibition at 10 µM (SR): 34%; inhibition at 10 µM (HCC-2998): 11%; inhibition at 10 µM (RPMI-8226): 64%; inhibition at 10 µM (KM 12): 16% |
